Experimental data: ChEMBL document CHEMBL1201862, “PubChem BioAssay data set” (2004)
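In this assay, cells in 96-well plates receive the compound at five concentrations for 48 hours. Endpoints are linearly interpolated between the surrounding concentrations. At the GI50, growth is halved.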 Calls of active or inactive are those of the source. Cut-off read from the data, not from the text of the source: active = GI50 up to about 1.1 µM and inactive = higher.

Key:
Assay in all cases: NCI anticancer screen, dose series, 48 h
A498 = test system: A498
CAKI-1 = test system: CAKI-1
HCT-15 = test system: HCT-15
HOP-62 = test system: HOP-62
M14 = test system: M14
MDA-MB-231 = test system: MDA-MB-231
MDA-MB-435 = test system: MDA-MB-435
NCI/ADR-RES = test system: NCI/ADR-RES
OVCAR-3 = test system: OVCAR-3
OVCAR-4 = test system: OVCAR-4
PC-3 = test system: PC-3
RXF 393 = test system: RXF 393
SF-268 = test system: SF-268
SF-539 = test system: SF-539
SK-MEL-5 = test system: SK-MEL-5
SN12C = test system: SN12C
SNB-19 = test system: SNB-19
SW-620 = test system: SW-620
CCRF-CEM = test system: CCRF-CEM

O=C(CON1C(=O)c2ccccc2C1=O)c1ccccc1
GI50 (A498): > 100 µM (inactive)
GI50 (CAKI-1): 19.1 µM (inactive)
GI50 (HCT-15): > 100 µM
GI50 (HOP-62): > 100 µM (inactive)
GI50 (M14): 57.1 µM (inactive)
GI50 (MDA-MB-231): > 100 µM (inactive)
GI50 (MDA-MB-435): 42 µM (inactive)
GI50 (NCI/ADR-RES): > 100 µM (inactive)
GI50 (OVCAR-3): 49.9 µM (inactive)
GI50 (OVCAR-4): 77.8 µM (inactive)
GI50 (PC-3): > 100 µM (inactive)
GI50 (RXF 393): 55.8 µM (inactive)
GI50 (SF-268): > 100 µM (inactive)
GI50 (SF-539): 37.5 µM (inactive)
GI50 (SK-MEL-5): > 100 µM (inactive)
GI50 (SN12C): 47.1 µM (inactive)
GI50 (SNB-19): > 100 µM (inactive)
GI50 (SW-620): 24.3 µM (inactive)

C=C(C(=O)OC)[C@H]1CC/C(C)=C/CC/C(C)=C/CC[C@@]2(C)O[C@@H]2C1
GI50 (A498): 22.1 µM (inactive)
GI50 (CAKI-1): 13.2 µM (inactive)
GI50 (CCRF-CEM): 13.1 µM (inactive)
GI50 (HCT-15): 16.3 µM
GI50 (HOP-62): 20.7 µM (inactive)
GI50 (M14): 21.9 µM (inactive)
GI50 (MDA-MB-231): 15.9 µM (inactive)
GI50 (MDA-MB-435): 22.9 µM (inactive)
GI50 (NCI/ADR-RES): 16.4 µM (inactive)
GI50 (OVCAR-3): 17.7 µM (inactive)
GI50 (OVCAR-4): 26.8 µM (inactive)
GI50 (PC-3): 18 µM (inactive)
GI50 (RXF 393): 14.9 µM (inactive)
GI50 (SF-539): 17.9 µM (inactive)
GI50 (SK-MEL-5): 10.3 µM (inactive)
GI50 (SN12C): 16.9 µM (inactive)
GI50 (SNB-19): > 100 µM (inactive)
GI50 (SW-620): 18.5 µM (inactive)

O=C(CN1c2ccccc2Sc2ccccc21)N1CCNCC1
GI50 (A498): 34.6 µM (inactive)
GI50 (CCRF-CEM): 99.8 µM (inactive)
GI50 (HCT-15): > 100 µM
GI50 (HOP-62): > 100 µM (inactive)
GI50 (M14): > 100 µM (inactive)
GI50 (MDA-MB-231): > 100 µM (inactive)
GI50 (MDA-MB-435): > 100 µM (inactive)
GI50 (NCI/ADR-RES): > 100 µM (inactive)
GI50 (OVCAR-3): > 100 µM (inactive)
GI50 (OVCAR-4): > 100 µM (inactive)
GI50 (PC-3): 73.1 µM (inactive)
GI50 (RXF 393): 97.5 µM (inactive)
GI50 (SF-268): > 100 µM (inactive)
GI50 (SF-539): > 100 µM (inactive)
GI50 (SK-MEL-5): 40.3 µM (inactive)
GI50 (SN12C): > 100 µM (inactive)
GI50 (SNB-19): > 100 µM (inactive)
GI50 (SW-620): > 100 µM (inactive)

CC(=O)N1c2ccccc2[C@H]2CCc3c([nH]c4ccccc34)[C@H]21
GI50 (A498): 17.5 µM (inactive)
GI50 (CAKI-1): 15.6 µM (inactive)
GI50 (CCRF-CEM): 11.6 µM (inactive)
GI50 (HCT-15): 11.3 µM
GI50 (HOP-62): 12.6 µM (inactive)
GI50 (M14): 14.3 µM (inactive)
GI50 (MDA-MB-231): 11.4 µM (inactive)
GI50 (MDA-MB-435): 16.7 µM (inactive)
GI50 (NCI/ADR-RES): 23.3 µM (inactive)
GI50 (OVCAR-3): 15.4 µM (inactive)
GI50 (PC-3): 23 µM (inactive)
GI50 (RXF 393): 13.2 µM (inactive)
GI50 (SF-268): 15.4 µM (inactive)
GI50 (SF-539): 11.8 µM (inactive)
GI50 (SK-MEL-5): 12.9 µM (inactive)
GI50 (SN12C): 13.7 µM (inactive)
GI50 (SNB-19): 24.3 µM (inactive)
GI50 (SW-620): 12 µM (inactive)

COc1ccc([N+](=O)[O-])c2c(NCCCN(C)C)ccnc12
GI50 (A498): 2.33 µM (inactive)
GI50 (CAKI-1): 8.39 µM (inactive)
GI50 (CCRF-CEM): 15 µM (inactive)
GI50 (HCT-15): 1.85 µM
GI50 (HOP-62): 3.66 µM (inactive)
GI50 (M14): 6.52 µM (inactive)
GI50 (MDA-MB-231): 8.3 µM (inactive)
GI50 (MDA-MB-435): 9.1 µM (inactive)
GI50 (NCI/ADR-RES): 15.8 µM (inactive)
GI50 (OVCAR-3): 2.39 µM (inactive)
GI50 (OVCAR-4): 1.51 µM (inactive)
GI50 (PC-3): 4.32 µM (inactive)
GI50 (RXF 393): 2.31 µM (inactive)
GI50 (SF-268): 6.18 µM (inactive)
GI50 (SF-539): 4.6 µM (inactive)
GI50 (SK-MEL-5): 2.12 µM (inactive)
GI50 (SN12C): 7.29 µM (inactive)
GI50 (SNB-19): 8.3 µM (inactive)
GI50 (SW-620): 4.7 µM (inactive)

COc1cc2c(cc1O)CCN[C@@]21CS[C@H]2c3c(OC(C)=O)c(C)c4c(c3C(COC1=O)N1C2C2NC(Cc3cc(C)c(OC)c(O)c32)[C@@H]1O)OCO4 (stereo partly specified)
GI50 (A498): < 0.01 µM (active)
GI50 (CAKI-1): < 0.01 µM (active)
GI50 (CCRF-CEM): < 0.01 µM (active)
GI50 (HOP-62): < 0.01 µM (active)
GI50 (M14): < 0.01 µM (active)
GI50 (MDA-MB-231): < 0.01 µM (active)
GI50 (MDA-MB-435): < 0.01 µM (active)
GI50 (NCI/ADR-RES): < 0.01 µM (active)
GI50 (OVCAR-4): < 0.01 µM (active)
GI50 (PC-3): < 0.01 µM (active)
GI50 (RXF 393): < 0.01 µM (active)
GI50 (SF-268): < 0.01 µM (active)
GI50 (SF-539): < 0.01 µM (active)
GI50 (SK-MEL-5): < 0.01 µM (active)
GI50 (SNB-19): < 0.01 µM (active)
GI50 (SW-620): < 0.01 µM (active)

CCOC(=O)c1ccc(-c2onc(C)c2Br)[nH]1
GI50 (A498): 49.9 µM (inactive)
GI50 (CAKI-1): 50.8 µM (inactive)
GI50 (HCT-15): 36.1 µM
GI50 (HOP-62): 59.3 µM (inactive)
GI50 (M14): 62.7 µM (inactive)
GI50 (MDA-MB-231): 41.7 µM (inactive)
GI50 (MDA-MB-435): 85.1 µM (inactive)
GI50 (NCI/ADR-RES): 29.7 µM (inactive)
GI50 (OVCAR-3): 30.4 µM (inactive)
GI50 (OVCAR-4): 43.2 µM (inactive)
GI50 (PC-3): 60 µM (inactive)
GI50 (RXF 393): 21.4 µM (inactive)
GI50 (SF-268): > 100 µM (inactive)
GI50 (SK-MEL-5): 41.3 µM (inactive)
GI50 (SNB-19): 66.1 µM (inactive)
GI50 (SW-620): 60 µM (inactive)

C[C@H](C(=O)N1C(=O)O[C@@H](c2ccccc2)[C@H]1C)[C@H](c1ccccc1)N(Cc1ccccc1)OC(=O)c1ccccc1
GI50 (A498): > 100 µM (inactive)
GI50 (CAKI-1): 77.1 µM (inactive)
GI50 (CCRF-CEM): 37.2 µM (inactive)
GI50 (HCT-15): 29.6 µM
GI50 (HOP-62): 18.9 µM (inactive)
GI50 (M14): 24.3 µM (inactive)
GI50 (MDA-MB-231): 94 µM (inactive)
GI50 (MDA-MB-435): 49.4 µM (inactive)
GI50 (NCI/ADR-RES): 30.3 µM (inactive)
GI50 (OVCAR-4): 21 µM (inactive)
GI50 (PC-3): 53.5 µM (inactive)
GI50 (RXF 393): 73.8 µM (inactive)
GI50 (SF-268): 33.8 µM (inactive)
GI50 (SF-539): 71.3 µM (inactive)
GI50 (SK-MEL-5): 21 µM (inactive)
GI50 (SN12C): 80.7 µM (inactive)
GI50 (SNB-19): 35 µM (inactive)
GI50 (SW-620): 70.3 µM (inactive)

CCc1n[nH]c(=O)n1N=C(c1ccccc1)c1ccccc1
GI50 (A498): > 100 µM (inactive)
GI50 (CAKI-1): > 100 µM (inactive)
GI50 (CCRF-CEM): > 100 µM (inactive)
GI50 (HCT-15): > 100 µM
GI50 (HOP-62): > 100 µM (inactive)
GI50 (M14): > 100 µM (inactive)
GI50 (MDA-MB-231): > 100 µM (inactive)
GI50 (MDA-MB-435): > 100 µM (inactive)
GI50 (NCI/ADR-RES): > 100 µM (inactive)
GI50 (OVCAR-3): > 100 µM (inactive)
GI50 (OVCAR-4): > 100 µM (inactive)
GI50 (PC-3): > 100 µM (inactive)
GI50 (RXF 393): > 100 µM (inactive)
GI50 (SF-268): > 100 µM (inactive)
GI50 (SK-MEL-5): > 100 µM (inactive)
GI50 (SN12C): > 100 µM (inactive)
GI50 (SNB-19): > 100 µM (inactive)
GI50 (SW-620): > 100 µM (inactive)

COc1ccc2oc3c(C)cc4c(OC)nnc(OC)c4c3c2c1
GI50 (A498): 17.4 µM (inactive)
GI50 (CAKI-1): 34 µM (inactive)
GI50 (CCRF-CEM): 5.21 µM (inactive)
GI50 (HCT-15): 7.83 µM
GI50 (HOP-62): 17.7 µM (inactive)
GI50 (M14): 16.5 µM (inactive)
GI50 (MDA-MB-231): 22.9 µM (inactive)
GI50 (MDA-MB-435): 25.4 µM (inactive)
GI50 (NCI/ADR-RES): 18.4 µM (inactive)
GI50 (OVCAR-3): > 100 µM (inactive)
GI50 (OVCAR-4): 34.6 µM (inactive)
GI50 (PC-3): 12.8 µM (inactive)
GI50 (RXF 393): 58.1 µM (inactive)
GI50 (SF-268): 6.53 µM (inactive)
GI50 (SF-539): 7.89 µM (inactive)
GI50 (SK-MEL-5): 6.15 µM (inactive)
GI50 (SN12C): 7.76 µM (inactive)
GI50 (SNB-19): 13.6 µM (inactive)
GI50 (SW-620): 7.57 µM (inactive)

CC(O)CCNC(=O)Nc1c(C(F)(F)F)cc(-c2ccccc2)[nH]c1=O (stereo unspecified)
GI50 (A498): > 100 µM (inactive)
GI50 (CAKI-1): > 100 µM (inactive)
GI50 (CCRF-CEM): > 100 µM (inactive)
GI50 (HCT-15): > 100 µM
GI50 (HOP-62): > 100 µM (inactive)
GI50 (M14): > 100 µM (inactive)
GI50 (MDA-MB-231): > 100 µM (inactive)
GI50 (MDA-MB-435): > 100 µM (inactive)
GI50 (NCI/ADR-RES): > 100 µM (inactive)
GI50 (OVCAR-3): > 100 µM (inactive)
GI50 (OVCAR-4): > 100 µM (inactive)
GI50 (PC-3): > 100 µM (inactive)
GI50 (RXF 393): > 100 µM (inactive)
GI50 (SF-268): > 100 µM (inactive)
GI50 (SK-MEL-5): > 100 µM (inactive)
GI50 (SN12C): > 100 µM (inactive)
GI50 (SNB-19): > 100 µM (inactive)
GI50 (SW-620): > 100 µM (inactive)
